Laboratory results reported in patent publication US20250032485A1, “APPLICATION OF IMIDAZO [1,2-A] PYRAZINE COMPOUNDS OR THEIR PHARMACEUTICALLY ACCEPTABLE SALTS IN THE PREPARATION OF ANTI-CORONAVIRUS DRUGS” (GUANGZHOU MEDICAL UNIVERSITY, priority 2023, published 2025).
Like-named read-outs stand apart in the source and are kept apart here.

Columns and labels:
PLpro of SARS-CoV-2 [1] = target: T1, PLpro of SARS-CoV-2 (Severe acute respiratory syndrome coronavirus 2, UniProt P0DTD1); test: IC50 determination of inhibition of PLpro activity (RLRGG-AMC substrate); assay type: biochemical; details: 13 concentrations 100 μM to 0.0244 μM, GraphPad Prism
PLpro of SARS-CoV-2 [2] = target: T1, PLpro of SARS-CoV-2; test: Enzyme activity test in vitro: inhibition of PLpro at fixed concentration 50 μM (RLRGG-AMC substrate); assay type: biochemical; details: read-out: Inhibition rate at 50 μM (%)
[3] = compound 50 μM, 10 min preincubation at 37° C., Table 1

| Structure (SMILES) | IC50 (PLpro of SARS-CoV-2 [1]) [µM] | inhibition at 50 µM (PLpro of SARS-CoV-2 [2]; [3]) [%] | inhibition at 50 µM (PLpro of SARS-CoV-2 [2]) [%] |
| --- | --- | --- | --- |
| COC(=O)c1cccc(Nc2c(-c3ccc(N4CCOCC4)cc3)nc3cnccn23)c1 [P141, methyl 3-[[2-(4-morpholin-4-ylphenyl)imidazo [1,2-a]pyrazin-3-yl]amino]benzoate] | 38.1 | 63.8 |  |
| O=C(O)c1ccc(Nc2c(-c3ccc(Cl)cc3)nc3cnccn23)cc1 [P18224, 4-[[2-(4-chlorophenyl)imidazo[1,2-a]pyrazin-3-yl]amino] benzoic acid] | 38.3 | 54.6 |  |
| COc1ccc(-c2nc3cnccn3c2Nc2ccc(C(N)=O)cc2)cc1 [P19442, 4-[[2-(4-methoxyphenyl)imidazo[1,2-a]pyrazin-3-yl]amino] benzamide] | 43.2 | 61.1 |  |
| CNC(=O)c1cccc(Nc2c(-c3ccc(N(C)C)cc3)nc3cnccn23)c1 [P19443, 3-[[2-[4-(dimethyl-amino)phenyl]imidazo [1,2-a]pyrazin-3-yl]amino]-N-methyl-benzamide] | 31.1 | 53 |  |
| CSc1ccc(-c2nc3cnccn3c2Nc2ccc(C(=O)O)cc2)cc1 [P19445, 4-[[2-(4-methyl-sulfanylphenyl)imidazo [1,2-a]pyrazin-3-yl]amino]benzoic acid] | 47.6 | 50.2 |  |
| COC(=O)c1cccc(Nc2c(-c3ccc(N(C)C)cc3)nc3cnccn23)c1 [P19446, methyl 3-[[2-[4-(dimethyl-amino)phenyl]imidazo [1,2-a]pyrazin-3-yl]amino]benzoate] | 30.3 | 65.8 |  |
| Cc1ccc(-c2nc3cnccn3c2Nc2ccc(C(N)=O)cc2)cc1 [P19452, 4-[[2-(4-methyl-phenyl)imidazo[1,2-a]pyrazin-3-yl]amino] benzamide] | 28.4 | 53.1 |  |
| COc1ccc(Nc2c(-c3ccc(OC)c(OC)c3)nc3cnccn23)cc1OC [P19453, N,2-bis(3,4-dimethoxy-phenyl)imidazo [1,2-a]pyrazin-3-amine] | 6.45 | 65.5 |  |
| COc1ccc(-c2nc3cnccn3c2Nc2ccc(C(N)=O)cc2)cc1OC [P19454, 4-[[2-(3,4-dimethoxy-phenyl)imidazo [1,2-a]pyrazin-3-yl]amino]benzamide] | 36.8 | 53.8 |  |
| COc1cc(-c2nc3cnccn3c2Nc2ccc(C(=O)O)cc2)ccc1O [P19455, 4-[[2-(4-hydroxy-3-methoxyphenyl)imidazo[1,2-a]pyrazin-3-yl]amino]benzoic acid] | 26.6 | 53.1 |  |
| COC(=O)c1cccc(Nc2c(-c3cccc(Cl)c3)nc3cnccn23)c1 [P19456, methyl 3-[[2-(3-chlorophenyl)imidazo[1,2-a]pyrazin-3-yl]amino] benzoate] | 60.9 | 47.8 |  |
| CSc1ccc(-c2nc3cnccn3c2Nc2ccc(C(N)=O)cc2)cc1 [P19462, 4-[[2-(4-methyl-sulfanylphenyl)imidazo [1,2-a]pyrazin-3-yl]amino]benzamide] | 26 | 65 |  |
| COc1ccc(-c2nc3cnccn3c2Nc2ccc(C(=O)NC3CCCCC3)cc2)cc1 [P22414, N-cyclohexyl-4-[[2-(4-methoxyphenyl)imidazo[1,2-a]pyrazin-3-yl]amino]benzamide] | 45.9 | 51.1 |  |
| Cc1ccc(-c2nc3cnccn3c2Nc2ccc(C(=O)N3CCOCC3)cc2)cc1 [P22415, [4-[[2-(4-methyl-phenyl)imidazo[1,2-a]pyrazin-3-yl]amino]phenyl]-morpholin-4-ylmethanone] | 49.7 | 63.3 |  |
| Cc1ccc(-c2nc3cnccn3c2Nc2ccc(C(=O)NCCN3CCOCC3)cc2)cc1 [P22423, 4-[[2-(4-methylphenyl)imidazo[1,2-a]pyrazin-3-yl]amino]-N-(2-morpholin-4-ylethyl)benzamide] | 33.5 | 54.5 |  |
| O=C(NC1CCCCC1)c1cccc(Nc2c(-c3ccc(Cl)cc3)nc3cnccn23)c1 [P22438, 3-[[2-(4-chlorophenyl)imidazo[1,2-a]pyrazin-3-yl]amino]-N-cyclohexyl-benzamide] | 40.8 | 54.2 |  |
| COc1ccc(-c2nc3cnccn3c2Nc2ccc(C(=O)NCc3ccco3)cc2)cc1 [P22445, N-(furan-2-ylmethyl)-4-[[2-(4-methoxy-phenyl)imidazo[1,2-a]pyrazin-3-yl]amino]benzamide] | 13.9 | 62.3 |  |
| CCNC(=O)c1ccc(Nc2c(-c3ccc(OC)cc3)nc3cnccn23)cc1 [P22471, Nethyl-4-[[2-(4-methoxyphenyl)imidazo[1,2-a]pyrazin-3-yl]amino]benzamide] | 35.1 | 52.8 |  |
| COc1ccc(-c2nc3cnccn3c2Nc2cccc(C(N)=O)c2)cc1 [P22475, 3-[[2-(4-methoxy-phenyl)imidazo[1,2-a]pyrazin-3-yl]amino] benzamide] | 16.6 | 60.1 |  |

| Structure (SMILES) | IC50 (PLpro of SARS-CoV-2 [1]) [µM] | inhibition at 50 µM (PLpro of SARS-CoV-2 [2]; [3]) [%] | inhibition at 50 µM (PLpro of SARS-CoV-2 [2]) [%] |
| --- | --- | --- | --- |
| CSc1ccc(-c2nc3cnccn3c2Nc2cccc(C(=O)NCc3ccco3)c2)cc1 [P22479] | 35.4 | 58.8 |  |
| COC(=O)c1cccc(Nc2c(-c3cccc(Br)c3)nc3cnccn23)c1 [P32343, methyl 3-[[2-(3-bromophenyl)imidazo[1,2-a]pyrazin-3-yl]amino] benzoate] |  |  | 12.9 |
| CCc1cccc(C)c1Nc1c(-c2ccc(C(=O)OC)cc2)nc2cnccn12 [P36232, methyl 4-[3-(2-ethyl-6-methylanilino)imidazo [1,2-a]pyrazin-2-yl]benzoate] |  |  | 20.3 |
| COC(=O)c1ccc(-c2nc3cnccn3c2NC2CCCC2)cc1 [P37287, methyl 4-[3-(cyclopentyl-amino)imidazo[1,2-a]pyrazin-2-yl] benzoate] |  |  | 21 |
| COC(=O)c1cccc(Nc2c(-c3cccc(O)c3)nc3cnccn23)c1 [P37288, methyl 3-[[2-(3-hydroxy-phenyl)imidazo[1,2-a]pyrazin-3-yl]amino]benzoate] |  |  | 13.2 |
| COC(=O)c1ccc(-c2nc3cnccn3c2Nc2ccc(C(C)C)cc2)cc1 [P37297, methyl 4-[3-(4-propan-2-ylanilino)imidazo[1,2-a]pyrazin-2-yl] benzoate] |  |  | 22.3 |
| CSc1ccc(-c2nc3cnccn3c2Nc2cccc(C(=O)O)c2)cc1 [P37298, 3-[[2-(4-methyl-sulfanylphenyl)imidazo [1,2-a]pyrazin-3-yl]amino]benzoic acid] |  |  | 33.6 |
| COC(=O)c1ccc(-c2nc3cnccn3c2Nc2c(C)cccc2C)cc1 [P37307, methyl 4-[3-(2,6-dimethyl-anilino)imidazo[1,2-a]pyrazin-2-yl] benzoate] |  |  | 43.4 |
| Cc1ccc(-c2nc3cnccn3c2Nc2cccc(C(=O)O)c2)cc1 [P37308, 3-[[2-(4-methyl-phenyl)imidazo[1,2-a]pyrazin-3-yl]amino] benzoic acid] |  |  | 20.8 |
| COC(=O)c1ccc(-c2nc3cnccn3c2Nc2cccc(C(F)(F)F)c2)cc1 [P37317, methyl 4-[3-[3-(trifluoro-methyl)anilino]imidazo [1,2-a]pyrazin-2-yl]benzoate] |  |  | 27.6 |
| O=C(O)c1cccc(Nc2c(-c3ccccc3O)nc3cnccn23)c1 [P37318, 3-[[2-(2-hydroxy-phenyl)imidazo[1,2-a]pyrazin-3-yl]amino] benzoic acid] |  |  | 15.9 |
| COC(=O)c1cccc(Nc2c(-c3ccc(O)cc3)nc3cnccn23)c1 [P37327, methyl 3-[[2-(4-hydroxy-phenyl)imidazo[1,2-a]pyrazin-3-yl]amino] benzoate] |  |  | 48.5 |
| O=C(O)c1cccc(Nc2c(-c3ccc([N+](=O)[O-])cc3)nc3cnccn23)c1 [P37328, 3-[[2-(4-nitrophenyl)imidazo[1,2-a]pyrazin-3-yl]amino] benzoic acid] |  |  | 17.2 |
| COC(=O)c1cccc(Nc2c(-c3ccc(Cl)cc3)nc3cnccn23)c1 [P37337, methyl 3-[[2-(4-chlorophenyl)imidazo[1,2-a]pyrazin-3-yl]amino] benzoate] |  |  | 23 |
| O=C(O)c1cccc(Nc2c(-c3cccc(O)c3)nc3cnccn23)c1 [P37338, 3-[[2-(3-hydroxy-phenyl)imidazo[1,2-a]pyrazin-3-yl]amino] benzoic acid] |  |  | 11.7 |
| COC(=O)c1cccc(Nc2c(-c3ccccc3O)nc3cnccn23)c1 [P37347, methyl 3-[[2-(2-hydroxy-phenyl)imidazo[1,2-a]pyrazin-3-yl]amino] benzoate] |  |  | 25 |
| CCc1cccc(C)c1Nc1c(-c2ccc(N)cc2)nc2cnccn12 [P37348, 2-(4-aminophenyl)-N-(2-ethyl-6-methyl-phenyl)imidazo[1,2-a]pyrazin-3-amine] |  |  | 16 |
| Fc1ccc(-c2nc3cnccn3c2Nc2ccc(Cl)cc2)cc1 [P37356, N-(4-chlorophenyl)-2-(4-fluorophenyl) imidazo[1,2-a] pyrazin-3-amine] |  |  | 3.18 |
| COC(=O)c1cccc(Nc2c(-c3ccc(F)cc3)nc3cnccn23)c1 [P37357, methyl 3-[[2-(4-fluorophenyl)imidazo[1,2-a]pyrazin-3-yl]amino] benzoate] |  |  | 4.32 |
